Data: patent US4902622A, “Novel α-1,6-glucosidase and process for producing the same” (Amano Pharmaceutical Co., Ltd., priority 1986, dated 1990)
Entries after “also recorded” stand apart in the source; their conditions may differ.

Experiments:
Assay type in all cases: biochemical, Bacillus sectorramus
α-1,6-glucosidase [1] = experiment: Influence of metal salt on enzyme activity; details: for Remaining activity (%): 50 mM acetic acid buffer (pH 4.5), 30 minutes at 40° C., final concentration of metal salt 5 mM; for Influence of metal salts: metal salt 5 mM
Protocol: (§1) 8. Assay of activity: 4 ml of 0.5% pullulan solution (pH 4.5) was added to 1 ml of an enzyme solution, and the reaction was carried out for 30 minutes at 40° C. Then, 2 ml of Somogyi solution was added, the mixture was heated for 20 minutes and then cooled. After cooling, 1 ml of ammonium arsenomolybdenate was added, and water was added to a total volume of 25 ml. Absorbance of this solution was measured at 500 nm, with a layer thickness of 1 cm. Under these conditions, the activity was defined as one unit when reducing sugar corresponding to 1 μmol of glucose was produced per minute.
10. […] Influences of various metal salts are shown in Table 5, indicating the remaining activity after treatment in a 50 mM acetic acid buffer (pH 4.5) for 30 minutes at 40° C., with a final concentration of metal salt of 5 mM.

α-1,6-glucosidase [2] = experiment: Influence of inhibitor on enzyme activity
Protocol: as §1

α-1,6-glucosidase [3] = experiment: Relative activity to polysaccharides (substrate specificity); details: activity of the enzyme on the polysaccharide, pullulan = 100
Protocol: 3. Relative activity to polysaccharides: Table 3 compares the relative activity of the enzyme on pullulan to relative activity on soluble maize amylopectin, soluble starch, oyster glycogen, hare glycogen, maize amylopectin, and potato amylopectin.
as §1

α-1,6-glucosidase [4] = experiment: Km value and Vmax to substrates; details: substrate of the purified enzyme
From the text: After the cultivation period, the cells were removed from the culture broth, and the supernatant fraction thus obtained was concentrated to obtain a preparation of crude pullulanase. This preparation was fractionated with ammonium sulfate, then subjected to affinity chromatography with γ-cyclodextrin-cephalose 6B (produced by coupling γ-cyclodextrin to activated Sepharose 6B (trade mark, Pharmacia Fine Chemical Co.)) and purified to a single band by electrophoresis utilizing SDS-polyacrylamide gel. The following explains the enzymochemical properties of the α-1,6-glucosidase thus purified.
2. Km value and Vmax to substrates: The Km value (mg/ml) and Vmax value (μmol/min/mg protein) of the enzyme to pullulan, potato amylopectin, and corn amylopectin are as shown in Table 2:
as §1

[5] = 50 mM acetic acid buffer (pH 4.5), 30 minutes at 40° C., final concentration of inhibitor 1 mM

**Q.** What does the source list for Cl.Cl.[Ag] [AgCl2]?
**A.** Remaining activity (%) (α-1,6-glucosidase [1]): 2.7%; Influence of metal salts (α-1,6-glucosidase [1]; listed as Ag^2+): deactivated; also recorded: losses activity

**Q.** With [Ba+2].[Cl-].[Cl-] [BaCl2] as the compound, how does the “Remaining activity (%)” value (α-1,6-glucosidase [1]) read?
**A.** 98.9%

**Q.** And the “Influence of metal salts” value (α-1,6-glucosidase [1])?
**A.** negligibly affected

**Q.** Which “Remaining activity (%)” value (α-1,6-glucosidase [1]) does the source give for [Ca+2].[Cl-].[Cl-] [CaCl2] here?
**A.** 79.1%

**Q.** O.O.O.O.O.[Cd+2].[Cd+2].[Cl-].[Cl-].[Cl-].[Cl-] [CdCl2.21/2H2 O] was tested. Which “Remaining activity (%)” value (α-1,6-glucosidase [1]) did it give?
**A.** 92.4%

**Q.** What about the “Influence of metal salts” value (α-1,6-glucosidase [1]) of the same compound?
**A.** negligibly affected

**Q.** [Cl-].[Cl-].[Co+2] [CoCl2] was tested. Which “Remaining activity (%)” value (α-1,6-glucosidase [1]) did it give?
**A.** 87.7%

**Q.** Which “Remaining activity (%)” value (α-1,6-glucosidase [1]) does the source give for O.O.[Cl][Cu][Cl] [CuCl2.2H2 O] here?
**A.** 73.4%

**Q.** O=C(O)CN(CCN(CC(=O)O)CC(=O)O)CC(=O)O [EDTA] was tested. Which “Remaining activity (%)” value (α-1,6-glucosidase [2]; pH 4.5) did it give?
**A.** 93.1%

**Q.** How did the “Remaining activity (%)” value (α-1,6-glucosidase [1]) turn out when [Cl][Fe][Cl] [FeCl2.nH2 O] was run?
**A.** 82.1%

**Q.** For [Cl][Fe]([Cl])[Cl] [FeCl3], which “Remaining activity (%)” value (α-1,6-glucosidase [1]) is on record?
**A.** 57.8%

**Q.** What about the “Influence of metal salts” value (α-1,6-glucosidase [1]) of the same compound?
**A.** inhibited

**Q.** With [Cl][Hg][Cl] [HgCl2] as the compound, how does the “Remaining activity (%)” value (α-1,6-glucosidase [1]) read?
**A.** 0%

**Q.** And the “Influence of metal salts” value (α-1,6-glucosidase [1]; listed as Hg^2+)?
**A.** deactivated; also recorded: losses activity

**Q.** For O.O.O.O.O.O.[Cl-].[Cl-].[Mg+2] [MgCl2.6H2 O], which “Remaining activity (%)” value (α-1,6-glucosidase [1]) is on record?
**A.** 91.3%

**Q.** What does the source list for O.O.O.O.[Cl][Mn][Cl] [MnCl2.4H2 O]?
**A.** Remaining activity (%) (α-1,6-glucosidase [1]): 85.9%; Influence of metal salts (α-1,6-glucosidase [1]): negligibly affected

**Q.** For O=C(O)CI [Monoiodo-acetic acid], which “Remaining activity (%)” value (α-1,6-glucosidase [2]; pH 4.5) is on record?
**A.** 66.5%

**Q.** How did the “Remaining activity (%)” value (α-1,6-glucosidase [2]; [5]) turn out when CCN1C(=O)C=CC1=O [N--ethylmaleimide] was run?
**A.** 65.5%

**Q.** How did the “Remaining activity (%)” value (α-1,6-glucosidase [1]) turn out when O.O.O.O.O.O.[Cl][Ni][Cl] [NiCl2.6H2 O] was run?
**A.** 102.7%

**Q.** What about the “Influence of metal salts” value (α-1,6-glucosidase [1]) of the same compound?
**A.** negligibly affected

**Q.** O=C(O)c1cc[c]([Hg][Cl])cc1 [PCMB, p-chloromercuribenzoic acid] was tested. Which “Remaining activity (%)” value (α-1,6-glucosidase [2]; [5]) did it give?
**A.** 27.1%

**Q.** Which “Remaining activity (%)” value (α-1,6-glucosidase [2]; [5]) does the source give for CCCCCCCCCCCCOS(=O)(=O)[O-].[Na+] [SDS, sodium dodecylsulfate] here?
**A.** 1.5%

**Q.** With O.O.[Cl][Sn][Cl] [SnCl2.2H2 O] as the compound, how does the “Remaining activity (%)” value (α-1,6-glucosidase [1]) read?
**A.** 82.1%

**Q.** How did the “Remaining activity (%)” value (α-1,6-glucosidase [1]) turn out when [Cl-].[Cl-].[Sr+2] [SrCl2] was run?
**A.** 74.5%

**Q.** What does the source list for [Cl-].[Cl-].[Zn+2] [ZnCl2]?
**A.** Remaining activity (%) (α-1,6-glucosidase [1]): 97.3%; Influence of metal salts (α-1,6-glucosidase [1]): negligibly affected

**Q.** What does the source list for c1cnc2c(c1)ccc1cccnc12 [o-phenanthroline]?
**A.** Remaining activity (%) (α-1,6-glucosidase [2]; [5]): 109.0%; Influence of inhibitor (α-1,6-glucosidase [2]; inhibitor 1 mM): not and not inhibited

**Q.** For Pullulan, which “Relative activity (%)” value (α-1,6-glucosidase [3]) is on record?
**A.** 100%

**Q.** What about the Km (α-1,6-glucosidase [4]) of the same compound?
**A.** 0.14 mg/mL

**Q.** What about the Vmax (α-1,6-glucosidase [4]) of the same compound?
**A.** 70.0 μmol/min/mg protein

**Q.** How did the “Relative activity (%)” value (α-1,6-glucosidase [3]) turn out when Soluble starch was run?
**A.** 6.7%
